From US20020137929A1, “1 - (3-heterocyclylphenyl) isothiourea, -isourea, -guanidine and -amidine herbicidal agents” (Intellectual Property Department, BASF Aktiengesellschaft, priority 1998, published 2002)

Assays:
AMBEL (Ragweed, Common) = assay: Preemergence herbicidal evaluation; assay type: in vivo, Ambrosia artemisifolia; conditions: rated 4-5 weeks after treatment
In short: (§1)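 Scores use a 0–9 visual scale covering stand, vigor, malformation, size and chlorosis relative to controls, rated four to five weeks after treatment. Before emergence, soil-planted seeds were sprayed with compound in aqueous acetone at roughly 0.0156–0.500 kg/ha and held in the greenhouse.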

ABUTH (Velvetleaf) = assay: Preemergence herbicidal evaluation; assay type: in vivo, Abutilon theophrasti; conditions: rated 4-5 weeks after treatment
In short: as §1

ZEAMX (Corn, Field) = assay: Postemergence herbicidal evaluation; assay type: in vivo, Zea mays; conditions: for Herbicidal rating ZEAMX: postemergence
In short: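 Each compound, dispersed in an acetone/water mix (50/50) carrying 0.5% TWEEN 20, is nozzle-sprayed at 40 psi on approximately two-week-old seedlings at about 0.0156–0.500 kg/ha. Plants are assessed 4–5 weeks afterward on a 0–9 scale relative to control; duplicate tests are averaged.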

[1] = test system: GLXMAW (Soybean, Williams); assay: Preemergence herbicidal evaluation; assay type: in vivo, Glycine max, (L.) Merr. cv Williams; conditions: rated 4-5 weeks after treatment
In short: as §1

[2] = rate 0.0156 kg/ha, rating scale 0-9
[3] = rate 0.0313 kg/ha, rating scale 0-9
[4] = rate 0.0625 kg/ha, rating scale 0-9
[5] = rate 0.1250 kg/ha, rating scale 0-9
[6] = rate 0.2500 kg/ha, rating scale 0-9

Row | SMILES | Herbicidal rating ZEAMX (ZEAMX (Corn, Field); rate 0.0156 kg/ha) | Herbicidal rating ZEAMX (ZEAMX (Corn, Field); rate 0.0313 kg/ha) | Herbicidal rating ZEAMX (ZEAMX (Corn, Field); rate 0.0625 kg/ha) | Preemergence herbicidal rating AMBEL (AMBEL (Ragweed, Common); 0.0156 kg/ha) | Preemergence herbicidal rating AMBEL (AMBEL (Ragweed, Common); 0.0313 kg/ha) | Preemergence herbicidal rating AMBEL (AMBEL (Ragweed, Common); 0.0625 kg/ha) | Preemergence herbicidal rating AMBEL (AMBEL (Ragweed, Common); 0.1250 kg/ha) | Preemergence herbicidal rating AMBEL (AMBEL (Ragweed, Common); 0.2500 kg/ha) | Preemergence herbicidal rating ABUTH (ABUTH (Velvetleaf); 0.0156 kg/ha) | Preemergence herbicidal rating ABUTH (ABUTH (Velvetleaf); 0.0313 kg/ha) | Preemergence herbicidal rating ABUTH (ABUTH (Velvetleaf); 0.0625 kg/ha) | Preemergence herbicidal rating ABUTH (ABUTH (Velvetleaf); 0.1250 kg/ha) | Preemergence herbicidal rating ABUTH (ABUTH (Velvetleaf); 0.2500 kg/ha) | Preemergence herbicidal rating GLXMAW ([1]; 0.0156 kg/ha) | Preemergence herbicidal rating GLXMAW ([1]; 0.0313 kg/ha) | Preemergence herbicidal rating GLXMAW ([1]; 0.0625 kg/ha) | Preemergence herbicidal rating GLXMAW ([1]; 0.1250 kg/ha) | Preemergence herbicidal rating GLXMAW ([1]; 0.2500 kg/ha) | Preemergence herbicidal rating AMBEL (AMBEL (Ragweed, Common); 0.5000 kg/ha) | Preemergence herbicidal rating ABUTH (ABUTH (Velvetleaf); 0.5000 kg/ha) | also measured
1 | C=C1SC(=Nc2cc(-n3c(=O)cc(C(F)(F)F)n(C)c3=O)c(F)cc2Cl)N(CC(=O)OCC)C1=O [Compound 154] | 4.0 | 4.0 | 5.0 |  |  |  |  |  |  |  |  |  |  |  |  |  |  |  |  |  | Preemergence herbicidal rating AMBEL (AMBEL (Ragweed, Common); [2]): 3.0; Preemergence herbicidal rating AMBEL (AMBEL (Ragweed, Common); [3]): 5.0; Preemergence herbicidal rating AMBEL (AMBEL (Ragweed, Common); [4]): 9.0; Preemergence herbicidal rating AMBEL (AMBEL (Ragweed, Common); [5]): 9.0; Preemergence herbicidal rating AMBEL (AMBEL (Ragweed, Common); [6]): 9.0; Preemergence herbicidal rating ABUTH (ABUTH (Velvetleaf); [2]): 9.0; Preemergence herbicidal rating ABUTH (ABUTH (Velvetleaf); [3]): 9.0; Preemergence herbicidal rating ABUTH (ABUTH (Velvetleaf); [4]): 9.0; Preemergence herbicidal rating ABUTH (ABUTH (Velvetleaf); [5]): 9.0; Preemergence herbicidal rating ABUTH (ABUTH (Velvetleaf); [6]): 9.0; Preemergence herbicidal rating GLXMAW [1, 2]: 0.0; Preemergence herbicidal rating GLXMAW [1, 3]: 2.0; Preemergence herbicidal rating GLXMAW [1, 4]: 5.0; Preemergence herbicidal rating GLXMAW [1, 6]: 8.0
2 | CCN1C(=O)CSC1=Nc1cc(-n2c(=O)cc(C(F)(F)F)n(C)c2=O)c(F)cc1Cl [Compound 159, 3-{4-Chloro-5-[(3-ethyl-4-oxo-2-thiazolidinyl-idene)amino]-2-fluorophenyl}-1-methyl-6-(trifluoromethyl)-2,4(1H,3H)-pyrimidinedione] | 5.0 | 6.5 | 7.0 | 1.0 | 3.0 | 4.0 | 6.0 | 8.0 | 2.0 | 9.0 | 9.0 | 9.0 | 9.0 | 1.0 | 0.0 | 1.0 | 2.0 | 3.0 |  |  | 
3 | CCOC(=O)CN1C(=O)C(OC)SC1=Nc1cc(-n2c(=O)cc(C(F)(F)F)n(C)c2=O)c(F)cc1Cl (centres unmarked) [Compound 160, Ethyl 2-{{2-chloro-5-[3,6-dihydro-3-methyl-2,6-dioxo-4-(trifluoromethyl)-1(2H)-pyrimidinyl]-4-fluorophenyl}imino}-5-methoxy-4-oxo-3-thiazolidineacetate] | 6.5 | 7.0 | 7.0 | 7.0 | 6.0 | 9.0 | 9.0 | 9.0 | 5.0 | 9.0 | 9.0 | 9.0 | 9.0 | 1.0 | 1.0 | 1.0 | 2.0 | 9.0 | 9.0 | 9.0 | Herbicidal rating ZEAMX (ZEAMX (Corn, Field); rate 0.1250 kg/ha): 7.5; Preemergence herbicidal rating GLXMAW ([1]; 0.5000 kg/ha): 9.0
4 | CC(C)N1C(=O)CSC1=Nc1cc(-n2c(=O)cc(C(F)(F)F)n(C)c2=O)c(F)cc1Cl [Compound 164, 3-{4-Chloro-2-fluoro-5-[(3-isopropyl-4-oxo-2-thiazolidinylidene)amino]phenyl}-1-methyl-6-(trifluoromethyl)-2,4(1H,3H)-pyrimidinedione] | 5.0 | 5.0 | 5.5 | 6.0 | 7.0 | 7.0 | 7.0 | 9.0 | 6.0 | 9.0 | 9.0 | 9.0 | 9.0 | 1.0 | 2.0 | 5.0 | 7.0 | 7.0 | 9.0 | 9.0 | Herbicidal rating ZEAMX (ZEAMX (Corn, Field); rate 0.1250 kg/ha): 6.5; Preemergence herbicidal rating GLXMAW ([1]; 0.5000 kg/ha): 7.0
5 | Cn1c(C(F)(F)F)cc(=O)n(-c2cc(N=C3SCC(=O)N3C3CCCC3)c(Cl)cc2F)c1=O [Compound 166, 3-{4-Chloro-5-[(3-cyclopentyl-4-oxo-2-thiazolidinylidene)amino]-2-fluorophenyl}-1-methyl-6-(trifluoromethyl)-2,4(1H,3H)-pyrimidinedione] | 3.0 | 3.0 | 3.5 | 1.0 | 0.0 | 3.0 | 6.0 | 7.0 | 0.0 | 2.0 | 1.0 | 7.0 | 9.0 | 0.0 | 2.0 | 2.0 | 2.0 | 6.0 | 7.0 | 9.0 | Herbicidal rating ZEAMX (ZEAMX (Corn, Field); rate 0.1250 kg/ha): 4.5; Preemergence herbicidal rating GLXMAW ([1]; 0.5000 kg/ha): 6.0
6 | Cn1c(C(F)(F)F)cc(=O)n(-c2cc(N=C3SCC(=O)N3C3CCC3)c(Cl)cc2F)c1=O [Compound 168, 3-{4-Chloro-5-[(3-cyclobutyl-4-oxo-2-thiazolidinylidene)amino]-2-fluorophenyl}-1-methyl-6-(trifluoromethyl)-2,4(1H,3H)-pyrimidinedione] | 4.5 | 4.5 | 7.0 | 0.0 | 0.0 | 0.0 | 0.0 | 5.0 | 0.0 | 0.0 | 4.0 | 9.0 | 9.0 | 0.0 | 0.0 | 0.0 | 0.0 | 0.0 |  |  | 
7 | CCOC(=O)CN1C(=O)C(CC(=O)O)SC1=Nc1cc(N2C(=O)CC(C(F)(F)F)CC2=O)c(F)cc1Cl (centres unmarked) [Compound 170, 2-{{2-Chloro-5-[2,6-dioxo-4-(trifluoromethyl)-piperidino]-4-fluorophenyl}imino}-4-oxo-3,5-thiazolidinediacetic acid, 3-ethyl ester] | 5.0 | 6.0 | 6.0 | 0.0 | 0.0 | 4.0 | 9.0 | 9.0 | 0.0 | 6.0 | 9.0 | 9.0 | 9.0 | 1.0 | 4.0 | 4.0 | 5.0 | 8.0 |  |  | 
8 | COCCCN1C(=O)CSC1=Nc1cc(-n2c(=O)cc(C(F)(F)F)n(C)c2=O)c(F)cc1Cl [Compound 172, 3-{4-Chloro-2-fluoro-5-{[3-(3-methoxypropyl)-4-oxo-2-thiazolidinylidene]amino}phenyl}-1-methyl-6-(trifluoromethyl)-2,4(1H, 3H)-pyrimidinedione] |  |  |  | 5.0 | 7.0 | 9.0 | 9.0 | 9.0 | 9.0 | 9.0 | 9.0 | 9.0 | 9.0 | 1.0 | 2.0 | 7.0 | 9.0 | 9.0 |  |  | Postemergence herbicidal rating ZEAMX (ZEAMX (Corn, Field); Rate 0.0313 kg/ha): 5.0; Postemergence herbicidal rating ZEAMX (ZEAMX (Corn, Field); Rate 0.0625 kg/ha): 5.0; Postemergence herbicidal rating ZEAMX (ZEAMX (Corn, Field); rate 0.0156 kg/ha): 5.0
